Here are results for 3 compounds from paper PMC7864192 (Cancers, 2021).

Experiment [1] concerns GCPA096 T1.I patient-derived AGCT cell line. Put plainly: Cell viability drug screen (Cell Titer Glo 2.0, 72 h), mono- and combination therapy, GCPA096T1.I. Conditions: Homo sapiens, 72 h, read-out: IC50 in monotherapy. In general terms: Cellular ATP, detected with luciferase, serves as a proxy for viable cell number.
Experiment [2] has as its system KGN cells (AGCT cell line). Put plainly: Cell viability drug screen (Cell Titer Glo 2.0, 72 h), mono- and combination therapy, KGN. Particulars: Homo sapiens, 72 h, read-out: IC50 in monotherapy.
Protocol: KGN was cultured in conditions identical to AGCT-patient-derived cell lines.
(§1) Cell lines were seeded at a density of 500 cells/well in 40 uL in 384-well plates (Corning, NY, USA) with the Multidrop™ cell dispenser (Thermo Fischer Scientific, Waltham, MA, USA) and sealed with Breathe-Easy® membrane (Sigma-Aldrich, St. Louis, MO, USA) to prevent evaporation. The SVOG-3e line was seeded at 1000 cells/well due to contact-dependent growth requirements. For each cell line, three biological repeats and two technical repeats each were performed in order to ensure the validity of the drug screens. […] Subsequently, 11 drugs and 12 drug combinations were dispensed and all wells (excluding blanks and non-DMSO control wells) were normalized to 1% DMSO using the HP Tecan D300e Digital Dispenser (Hewlett-Packard, Palo Alto, CA, USA). All drugs were applied in linear concentration ranges (Table 2), including 16 data points to enable combination drug testing at constant ratios (Table 3). Next, the plates were covered with the Breathe-Easy membrane and incubated. After 72 h, the Multidrop dispensed 15 uL per well of Cell Titer Glo 2.0 (Thermo Fischer Scientific, Waltham, MA, USA) and plates were incubated in the dark for 10 min. After incubation, luminescence excitation was assessed in the Spectramax reader (Molecular Devices, San Jose, CA, USA) (top read, luminescence excitation at 500 nm) and raw data were processed in Microsoft Excel to subtract background luminescence. […] Screens with a Z-factor value of >0.5 were used for further analysis.
(§2) Overall cell survival (in %) was plotted against the drug concentration range of each drug (in log10[μM]) using GraphPad Prism 8.3.1. Values that exceeded 100% survival (within +20% biological deviation) were normalized to 100% survival. Similarly, values below 0% cell survival (within −20% biological deviation) were normalized to 0% survival. Values exceeding this deviation were excluded. Dose–response curves were obtained using the model “log(inhibitor) vs. variable slope (normalized response)” to fit the dose–response curves and R^2 values were used to indicate how well the model fit the data (Supplementary Materials Figures S4 and S5). […] The IC50 values were calculated based on the Chou–Talalay method using Compusyn software [55]. For anti-hormonal treatment, mostly provided as maintenance therapy, we used IC10 values in addition to the IC50.
In experiment [3] the test system is GCPA113 T1.II patient-derived AGCT cell line. Put plainly: Cell viability drug screen (Cell Titer Glo 2.0, 72 h), mono- and combination therapy, GCPA113T1.II. Conditions: for IC50: Homo sapiens, 72 h, read-out: IC50 in monotherapy.
Experiment [4] relates to GCPA108 T3.IV patient-derived AGCT cell line. Put plainly: Cell viability drug screen (Cell Titer Glo 2.0, 72 h), mono- and combination therapy, GCPA108T3.IV. Conditions: Homo sapiens, 72 h, read-out: IC50 in monotherapy.
Protocol: (§3) Cell lines were seeded at a density of 500 cells/well in 40 uL in 384-well plates (Corning, NY, USA) with the Multidrop™ cell dispenser (Thermo Fischer Scientific, Waltham, MA, USA) and sealed with Breathe-Easy® membrane (Sigma-Aldrich, St. Louis, MO, USA) to prevent evaporation. The SVOG-3e line was seeded at 1000 cells/well due to contact-dependent growth requirements. For each cell line, three biological repeats and two technical repeats each were performed in order to ensure the validity of the drug screens. […] Subsequently, 11 drugs and 12 drug combinations were dispensed and all wells (excluding blanks and non-DMSO control wells) were normalized to 1% DMSO using the HP Tecan D300e Digital Dispenser (Hewlett-Packard, Palo Alto, CA, USA). All drugs were applied in linear concentration ranges (Table 2), including 16 data points to enable combination drug testing at constant ratios (Table 3). Next, the plates were covered with the Breathe-Easy membrane and incubated. After 72 h, the Multidrop dispensed 15 uL per well of Cell Titer Glo 2.0 (Thermo Fischer Scientific, Waltham, MA, USA) and plates were incubated in the dark for 10 min. After incubation, luminescence excitation was assessed in the Spectramax reader (Molecular Devices, San Jose, CA, USA) (top read, luminescence excitation at 500 nm) and raw data were processed in Microsoft Excel to subtract background luminescence. The Z-factor, a mathematical method used to quantify the quality of a drug screen based on the calculation of the separation band between the values of the positive and negative controls, was utilized to assess the quality of drug screens [54]. Screens with a Z-factor value of >0.5 were used for further analysis.
(§4) Overall cell survival (in %) was plotted against the drug concentration range of each drug (in log10[μM]) using GraphPad Prism 8.3.1. Values that exceeded 100% survival (within +20% biological deviation) were normalized to 100% survival. Similarly, values below 0% cell survival (within −20% biological deviation) were normalized to 0% survival. Values exceeding this deviation were excluded. Dose–response curves were obtained using the model “log(inhibitor) vs. variable slope (normalized response)” to fit the dose–response curves and R^2 values were used to indicate how well the model fit the data (Supplementary Materials Figures S4 and S5). […] The maximum plasma concentration (Cmax) and the plasma concentration at steady state (Css) were used as toxicity thresholds. The Cmax was utilized for drugs in which short, high-dosage time courses are required, while the Css was used for maintenance therapy regimes such as anti-hormonal treatment. […] The IC50 values were calculated based on the Chou–Talalay method using Compusyn software [55]. For anti-hormonal treatment, mostly provided as maintenance therapy, we used IC10 values in addition to the IC50.
(§5) In addition to the 11 monotherapies, 12 drug combinations were tested (Table 3) simultaneously with the individual drug treatments in the same 384-well plate. […] Synergy was evaluated using the mass action law, a systematic analysis assessing dose–response dynamics in a cost-effective manner [56, 57]. The combination index (CI) was used to indicate antagonistic (CI > 1) additive (CI = 1) and synergistic (CI < 1) effects [55].
The subject of experiment [5] is GCPA007 T2.IV patient-derived AGCT cell line. Put plainly: Cell viability drug screen (Cell Titer Glo 2.0, 72 h), mono- and combination therapy, GCPA007T2.IV. Particulars: Homo sapiens, 72 h, read-out: IC50 in monotherapy.
Protocol: (§6) Cell lines were seeded at a density of 500 cells/well in 40 uL in 384-well plates (Corning, NY, USA) with the Multidrop™ cell dispenser (Thermo Fischer Scientific, Waltham, MA, USA) and sealed with Breathe-Easy® membrane (Sigma-Aldrich, St. Louis, MO, USA) to prevent evaporation. […] For each cell line, three biological repeats and two technical repeats each were performed in order to ensure the validity of the drug screens. […] Subsequently, 11 drugs and 12 drug combinations were dispensed and all wells (excluding blanks and non-DMSO control wells) were normalized to 1% DMSO using the HP Tecan D300e Digital Dispenser (Hewlett-Packard, Palo Alto, CA, USA). […] Next, the plates were covered with the Breathe-Easy membrane and incubated. After 72 h, the Multidrop dispensed 15 uL per well of Cell Titer Glo 2.0 (Thermo Fischer Scientific, Waltham, MA, USA) and plates were incubated in the dark for 10 min. After incubation, luminescence excitation was assessed in the Spectramax reader (Molecular Devices, San Jose, CA, USA) (top read, luminescence excitation at 500 nm) and raw data were processed in Microsoft Excel to subtract background luminescence. The Z-factor, a mathematical method used to quantify the quality of a drug screen based on the calculation of the separation band between the values of the positive and negative controls, was utilized to assess the quality of drug screens [54]. Screens with a Z-factor value of >0.5 were used for further analysis.
as §2, §5
The test system of experiment [6] is GCPA096 T1.XVI patient-derived AGCT cell line. Put plainly: Cell viability drug screen (Cell Titer Glo 2.0, 72 h), mono- and combination therapy, GCPA096T1.XVI. Conditions: Homo sapiens, 72 h, read-out: IC50 in monotherapy.
Protocol: as §1, §4, §5
For experiment [7], the system named is GCPA028 T1.II patient-derived AGCT cell line. Put plainly: Cell viability drug screen (Cell Titer Glo 2.0, 72 h), mono- and combination therapy, GCPA028. Particulars: Homo sapiens, 72 h, read-out: IC50 in monotherapy.
The subject of experiment [8] is GCPA096 T1.V patient-derived AGCT cell line. Put plainly: Cell viability drug screen (Cell Titer Glo 2.0, 72 h), mono- and combination therapy, GCPA096T1.V. Conditions: Homo sapiens, 72 h, read-out: IC50 in monotherapy.
Protocol: as §1, §4, §5
In experiment [9] the test system is GCPA113 T1.III patient-derived AGCT cell line. Put plainly: Cell viability drug screen (Cell Titer Glo 2.0, 72 h), mono- and combination therapy, GCPA113T1.III. Conditions: Homo sapiens, 72 h, read-out: IC50 in monotherapy.
Protocol: as §6, §2, §5
For experiment [10], the system named is GCPA096 T1.II patient-derived AGCT cell line. Put plainly: Cell viability drug screen (Cell Titer Glo 2.0, 72 h), mono- and combination therapy, GCPA096T1.II. Conditions: Homo sapiens, 72 h, read-out: IC50 in monotherapy.
Experiment [11] relates to GCPA007 T2.I patient-derived AGCT cell line. Put plainly: Cell viability drug screen (Cell Titer Glo 2.0, 72 h), mono- and combination therapy, GCPA007T2.I. Conditions: Homo sapiens, 72 h, read-out: IC50 in monotherapy.
Protocol: as §1, §4, §5
Experiment [12] has as its system GCPA113 T1.I patient-derived AGCT cell line. Put plainly: Cell viability drug screen (Cell Titer Glo 2.0, 72 h), mono- and combination therapy, GCPA113T1.I. Particulars: Homo sapiens, 72 h, read-out: IC50 in monotherapy.
Experiment [13] relates to GCPA096 T1.XV patient-derived AGCT cell line. Put plainly: Cell viability drug screen (Cell Titer Glo 2.0, 72 h), mono- and combination therapy, GCPA096T1.XV. Conditions: Homo sapiens, 72 h, read-out: IC50 in monotherapy.
Protocol: as §3, §4, §5

For the compound `CC(=O)[C@@]1(O)CC[C@H]2[C@@H]3CCC4=CC(=O)CCC4=C3[C@@H](c3ccc(N(C)C)cc3)C[C@@]21C` [Ulipristal], the IC50 in experiment [1] was over 50 µM; in [2], 43.7 µM; in experiment [3], over 50 µM; in experiment [4] it was over 50 µM; in [5] it was over 50 µM; in [6], over 50 µM. In addition, the IC50 in [7] was 49.9 µM; in [8], over 50 µM; in [9], over 50 µM; in experiment [10] it was over 50 µM; in [11], over 50 µM; in experiment [12], over 50 µM. The IC50 in experiment [13] is over 50 µM.

On to `C[C@]12CC[C@@H]3c4ccc(O)cc4C[C@@H](CCCCCCCCC[S+]([O-])CCCC(F)(F)C(F)(F)F)[C@H]3[C@@H]1CC[C@@H]2O` (stereo partly shown) [Fulvestrant], for which the IC50 in experiment [1] was over 100 µM; in experiment [2], over 100 µM; in experiment [5], over 100 µM; in [6], over 100 µM; in experiment [7], 33.3 µM; in [8], over 100 µM. The IC50 in [9], in experiment [10], in [11], in experiment [12] and in experiment [13] was over 100 µM each time. Moreover, the IC50 in monotherapy result in experiment [3] (GCPA113T1II, monotherapy) is on record as “Infinit”.

For the compound `N#Cc1ccc(C(c2ccc(C#N)cc2)n2cncn2)cc1` [Letrozole], the IC50 in [1] is over 50 µM; in experiment [2] it was 35.4 µM; in experiment [3], over 50 µM; in [5], over 50 µM; in experiment [6], over 50 µM; in experiment [7] it was over 50 µM. For the same compound, the IC50 in [8], in experiment [9], in [10], in experiment [11], in experiment [12] and in [13] was over 50 µM throughout.

Usually IC50 stands for the midpoint of a concentration-inhibition curve.
